Values of other authors, collected in patent US20090325155A1, “Aureobasin a synthetase” (priority 2005, published 2009).
Starred links: 1 amine or outer side, 2 acyl side, 3 side chain; linkers in the order of their positions; H or OH if unused. Non-standard residues stand in square brackets, D forms with d. Residues, ends and D or L forms follow the SMILES beside them. ξ: configuration not given here. NMeVal(β-OH) = CN[C@H](C(=O)O)C(C)(C)O; X1 = CCC(C)[C@@H](O[*:1])C(=O)[*:2]; NMeF = CN[C@@H](Cc1ccccc1)C(=O)O; Ile(3ξ) = CCC(C)[C@H](N)C(=O)O; NMeV = CN[C@H](C(=O)O)C(C)C

Assays:
[1] = test system: a number of fungi, including yeasts, such as Saccharomyces cerevisiae and Schizosaccharomyces pombe; settings: low concentration toxic against a number of fungi
Aspergillus spp. = settings: third major human pathogen

CCC(C)[C@@H]1NC(=O)[C@@H]2CCCN2C(=O)[C@H](Cc2ccccc2)N(C)C(=O)[C@H](Cc2ccccc2)NC(=O)[C@H](C(C)C)N(C)C(=O)[C@@H](C(C)CC)OC(=O)[C@H](C(C)(C)O)N(C)C(=O)[C@H](CC(C)C)NC(=O)[C@H](C(C)C)N(C)C1=O (stereo partly drawn) [AbA, Aureobasidin A] (cyclo(F[NMeF]P[Ile(3ξ)][NMeV]L[NMeVal(β-OH)][X1][NMeV]))
concentration at which toxic [1]: 0.1 to 0.5 µg/mL | cidal to fungal pathogen (Candida spp): cidal | cidal to fungal pathogen (Cryptococcus neoformans): cidal | toxicity to fungal pathogen (Aspergillus spp.): not toxic
